Drawing on patent publication US20230390247A1, “BIPHENYL PYRROLIDINE AND BIPHENYL DIHYDROIMIDAZOLE DERIVATIVES FOR INHIBITING ACTIVITY OF 5-HT7 SEROTONIN RECEPTOR, AND PHARMACEUTICAL COMPOSITION COMPRISING SAME AS ACTIVE INGREDIENT” (priority 2020, published 2023), this text covers inhibition and IC50 for 32 compounds.

In assay [1] the target is T1, 5-HT7R (Homo sapiens (Human), UniProt P34969). The assay is described as follows: cAMP assay (luminescence-based, GloSensor). Type of assay: cell-based. The note with it: HEK293 cells transfected with human 5-HT7R and GloSensor-22F. Here is the method:
For luminescence-based cAMP assay, HEK293 cells were cultured on a 150-mm dish. Prior to transfection, the culture medium was replaced from DMEM containing 10% FBS, 100 U/mL penicillin and 100 μg/mL streptomycin to DMEM containing 10% dialyzed FBS, 100 U/mL penicillin and 100 μg/mL streptomycin. 4 hours later, transfection was conducted using 10 μg of a human 5-HT7R plasmid and 10 μg of a GloSensor-22F plasmid (Promega). The transfected cells were prepared on a white, flat, clear-bottom, 384-well plate (Greiner) (15,000 cells/well, 20 μL/well). 6 hours later, after removing the culture medium, the cells were treated with 20 μL of a 3% Glosensor cAMP reagent containing luciferin in a 1×HBSS, […], pH 7.4 buffer. In addition, the compound of each of the examples was prepared at different concentrations in an assay buffer containing 0.1% bovine serum albumin. 30 minutes later, 10 μL of the compound solution was treated to the cells. After measuring luminescence using a Tecan microplate reader (Spark), IC50 value was obtained using the Prism 8.0 program (GraphPad Software).

For assay [2], the target named is T1, 5-HT7R. The assay is described as follows: Tango assay (β-arrestin signaling system). Type of assay: cell-based. Conditions: HTLA cells transfected with 5-HT7R-TCS-tTA construct. Here is the method:
Tango assay was conducted using HTLA cells in order to investigate the activity of the β-arrestin signaling system. Prior to transfection, the culture medium was replaced from DMEM containing 10% FBS, 100 U/mL penicillin, 100 μg/mL streptomycin, 2 μg/mL puromycin and 100 μg/mL hygromycin B to DMEM containing 10% dialyzed FBS, 100 U/mL penicillin and 100 μg/mL streptomycin. 4 hours later, transfection was conducted using 20 μg of a 5-HT7R-TCS-tTA construct (5-HT7R Tango DNA). The transfected cells were prepared on a white, flat, clear-bottom, 384-well plate (Greiner) (15,000 cells/well, 20 μL/well) using DMEM containing 10% dialyzed FBS, 100 U/mL penicillin and 100 μg/mL streptomycin. 6 hours later, after removing the culture medium, the cells were treated with 10 μL of the compound solution. After culturing for 22 hours and removing the culture medium, the cells were treated with 20 μL of a BrightGlo reagent (Promega) diluted in a 1×HBSS, […], pH 7.4 buffer. After measuring luminescence using a Tecan microplate reader (Spark), IC50 value was obtained using the Prism 8.0 program (GraphPad Software).

T1 sequence (P34969 whole entry): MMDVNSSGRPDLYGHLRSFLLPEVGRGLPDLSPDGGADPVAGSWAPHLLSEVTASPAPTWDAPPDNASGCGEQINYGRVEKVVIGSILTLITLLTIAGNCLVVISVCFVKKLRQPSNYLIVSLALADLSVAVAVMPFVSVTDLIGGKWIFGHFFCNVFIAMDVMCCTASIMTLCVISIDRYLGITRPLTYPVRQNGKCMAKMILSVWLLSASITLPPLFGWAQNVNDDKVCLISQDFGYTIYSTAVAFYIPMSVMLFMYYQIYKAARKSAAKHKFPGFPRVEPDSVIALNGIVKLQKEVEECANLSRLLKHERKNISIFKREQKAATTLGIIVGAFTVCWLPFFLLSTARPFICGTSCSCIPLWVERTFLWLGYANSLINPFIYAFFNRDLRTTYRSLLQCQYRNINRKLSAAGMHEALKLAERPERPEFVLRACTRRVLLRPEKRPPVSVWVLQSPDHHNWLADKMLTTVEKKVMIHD

The compound `c1ccc(-c2cccc(CN3CCCC3)c2)cc1` [Compound 1, 1-([1,1′-biphenyl]-3-ylmethyl)pyrrolidine] displayed an inhibition at 10 µM against 5-HT7R [1] of 42.1%. On 5-HT7R [2], this compound yielded an inhibition at 10 µM of 17.5% and a half-maximal inhibitory concentration (IC50) of 22.9 µM.

For the compound `Cc1ccccc1-c1cccc(CN2CCCC2)c1` [Compound 5, 1-((2′-methyl-[1,1′-biphenyl]-3-yl)methyl)pyrrolidine], the inhibition at 10 µM was 49.5% against 5-HT7R [1] and 25% against 5-HT7R [2].

For `Clc1ccccc1-c1cc(C2=NCCN2)ccc1Cl` [Compound 35, 2-(2′,6-dichloro-[1,1′-biphenyl]-3-yl)-4,5-dihydro-1H-imidazole], the values for the inhibition at 10 µM against 5-HT7R [1] and against 5-HT7R [2] were 53.8% and 42%, respectively. Half-maximal inhibition on 5-HT7R [2] (IC50) required 20.4 µM.

In the case of `Clc1cccc(-c2cccc(CN3CCCC3)c2)c1` [Compound 3, 1-((3′-chloro-[1,1′-biphenyl]-3-yl)methyl)pyrrolidine], the inhibition at 10 µM came out at 85.9% against 5-HT7R [1] and 33.2% at 5-HT7R [2]. In addition, at 5-HT7R [1], the IC50 is 4.88 µM.

`COc1cccc(-c2cc(C3=NCCN3)ccc2Cl)c1` [Compound 42, 2-(6-chloro-3′-methoxy-[1,1′-biphenyl]-3-yl)-4,5-dihydro-1H-imidazole]: the inhibition at 10 µM against 5-HT7R [1] amounted to 49.8%; on 5-HT7R [2], 23.4%.

Take `Cc1cccc(-c2cccc(CN3CCCC3)c2)c1` [Compound 6, 1-((3′-methyl-[1,1′-biphenyl]-3-yl)methyl)pyrrolidine]: the inhibition at 10 µM against 5-HT7R [1] came to 38.9%; against 5-HT7R [2], 22%.

With `Clc1ccc(C2=NCCN2)cc1-c1ccccc1` [Compound 34, 2-(6-chloro-[1,1′-biphenyl]-3-yl)-4,5-dihydro-1H-imidazole], the inhibition at 10 µM on 5-HT7R [1] was 48.4%; on 5-HT7R [2], 31.6%.

Regarding `Clc1ccc(-c2cc(C3=NCCN3)ccc2Cl)cc1` [Compound 37, 2-(4′,6-dichloro-[1,1′-biphenyl]-3-yl)-4,5-dihydro-1H-imidazole], the inhibition at 10 µM against 5-HT7R [1] came to 43.3%; on 5-HT7R [2], 39.6%.

Consider `Cc1cccc(-c2cc(C3=NCCN3)ccc2Cl)c1` [Compound 39, 2-(6-chloro-3′-methyl-[1,1′-biphenyl]-3-yl)-4,5-dihydro-1H-imidazole], for which the results for the inhibition at 10 µM at 5-HT7R [1] and at 5-HT7R [2] were 48.1% and 27%, respectively.

On 5-HT7R [1], `COc1cccc(-c2cccc(C3=NCCN3)c2)c1` [Compound 31, 2-(3′-methoxy-[1,1′-biphenyl]-3-yl)-4,5-dihydro-1H-imidazole] gave an inhibition at 10 µM of 72.5% and an IC50 of 5.77 µM. In addition, at 10 µM the inhibition on 5-HT7R [2] was 27.8%.

Take `Cc1ccccc1-c1cc(CN2CCCC2)ccc1Cl` [Compound 16, 1-((6-chloro-2′-methyl-[1,1′-biphenyl]-3-yl)methyl)pyrrolidine]: on 5-HT7R [1], testing at 10 µM gave an inhibition of 73.3% and inhibition was half-maximal at 6.42 µM (IC50). The inhibition at 10 µM against 5-HT7R [2] was found to be 30.9%.

On 5-HT7R [1], `Clc1ccc(-c2cc(CN3CCCC3)ccc2Cl)cc1` [Compound 15, 1-((4′,6-dichloro-[1,1′-biphenyl]-3-yl)methyl)pyrrolidine] came in with an inhibition at 10 µM of 63.8% and a 50% inhibitory concentration (IC50) of 7.15 µM. This compound also came in with an inhibition at 10 µM against 5-HT7R [2] of 34.3%.

In the case of `COc1ccccc1-c1cccc(CN2CCCC2)c1` [Compound 8, 1-((2′-methoxy-[1,1′-biphenyl]-3-yl)methyl)pyrrolidine], the inhibition at 10 µM came out at 57.1% on 5-HT7R [1] and 18% against 5-HT7R [2].

On 5-HT7R [1], `COc1cccc(-c2cccc(CN3CCCC3)c2)c1` [Compound 9, 1-((3′-methoxy-[1,1′-biphenyl]-3-yl)methyl)pyrrolidine] had an inhibition at 10 µM of 67.2% and an IC50 of 6.44 µM. At 5-HT7R [2], this compound returned an inhibition at 10 µM of 16.7%.

With `Cc1cccc(-c2cc(CN3CCCC3)ccc2Cl)c1` [Compound 17, 1-((6-chloro-3′methyl-[1,1′-biphenyl]-3-yl)methyl)pyrrolidine], the values for the inhibition at 10 µM against 5-HT7R [1] and on 5-HT7R [2] were 51.8% and 11.4%, respectively.

Regarding `Cc1ccc(-c2cc(C3=NCCN3)ccc2Cl)cc1` [Compound 40, 2-(6-chloro-4′-methyl-[1,1′-biphenyl]-3-yl)-4,5-dihydro-1H-imidazole], the inhibition at 10 µM at 5-HT7R [1] was 48.9%; against 5-HT7R [2] it was 31.3%.

Turning to `COc1ccccc1-c1cc(C2=NCCN2)ccc1Cl` [Compound 41, 2-(6-chloro-2′-methoxy-[1,1′-biphenyl]-3-yl)-4,5-dihydro-1H-imidazole], the values for the inhibition at 10 µM against 5-HT7R [1] and against 5-HT7R [2] were 44.3% and 27.7%, respectively.

In the case of `COc1ccc(-c2cc(C3=NCCN3)ccc2Cl)cc1` [Compound 43, 2-(6-chloro-4′-methoxy-[1,1-biphenyl]-3-yl)-4,5-dihydro-1H-imidazole], the inhibition at 10 µM turned out to be 36.8% on 5-HT7R [1] and 21.5% against 5-HT7R [2].

In the case of `COc1ccc(-c2cccc(CN3CCCC3)c2)cc1` [Compound 10, 1-((4′-methoxy-[1,1′-biphenyl]-3-yl)methyl)pyrrolidine], the inhibition at 10 µM at 5-HT7R [1] is 37.9%; against 5-HT7R [2], 23.1%.

Turning to `COc1ccccc1-c1c(Cl)ccc(CN2CCCC2)c1OC` [Compound 22, 1-((6-chloro-2,6′-dimethoxy-[1,1′-biphenyl]-3-yl)methyl)pyrrolidine], the figures for the inhibition at 10 µM at 5-HT7R [1] and at 5-HT7R [2] were 42.7% and 3.3%, respectively.

Turning to `Clc1cccc(-c2cccc(C3=NCCN3)c2)c1` [Compound 25, 2-(3′-chloro-[1,1′-biphenyl]-3-yl)-4,5-dihydro-1H-imidazole], the inhibition at 10 µM against 5-HT7R [1] was 50.9%; at 5-HT7R [2], 43.6%. Moreover, the IC50 on 5-HT7R [2] was determined as 10.5 µM.

As to `Cc1cccc(-c2cccc(C3=NCCN3)c2)c1` [Compound 28, 2-(3′-methyl-[1,1′-biphenyl]-3-yl)-4,5-dihydro-1H-imidazole], the inhibition at 10 µM on 5-HT7R [1] was found to be 44.6%; against 5-HT7R [2], 28.8%.

For the compound `Clc1ccccc1-c1cccc(C2=NCCN2)c1` [Compound 24, 2-(2′-chloro-[1,1′-biphenyl]-3-yl)-4,5-dihydro-1H-imidazole], the figures for the inhibition at 10 µM on 5-HT7R [1] and at 5-HT7R [2] were 47.6% and 36%, respectively.

As for `Cc1ccccc1-c1cccc(C2=NCCN2)c1` [Compound 27, 2-(2′-methyl-[1,1′-biphenyl]-3-yl)-4,5-dihydro-1H-imidazole], the inhibition at 10 µM on 5-HT7R [1] is 55.3%; against 5-HT7R [2] it was 23%.

For the compound `Cc1ccc(-c2cc(CN3CCCC3)ccc2Cl)cc1` [Compound 18, 1-((6-chloro-4′methyl-[1,1′-biphenyl]-3-yl)methyl)pyrrolidine], at 5-HT7R [1], at 10 µM the inhibition was 73.4% and it took 8.2 µM to reach half-maximal inhibition (IC50). The compound further yielded an inhibition at 10 µM against 5-HT7R [2] of 21.5%.

As for `Clc1ccc(CN2CCCC2)cc1-c1ccccc1` [Compound 12, 1-((6-chloro-[1,1′-biphenyl]-3-yl)methyl)pyrrolidine], at 5-HT7R [1], the inhibition at 10 µM came to 80.8% and it took 4.89 µM to reach half-maximal inhibition (IC50). The compound also displayed an inhibition at 10 µM against 5-HT7R [2] of 26.1%.

`Clc1cccc(-c2cc(CN3CCCC3)ccc2Cl)c1` [Compound 14, 1-((3′,6-dichloro-[1,1′-biphenyl]-3-yl)methyl)pyrrolidine]: the inhibition at 10 µM is 51.1% on 5-HT7R [1] and 27.9% against 5-HT7R [2].

With `COc1cccc(-c2cc(CN3CCCC3)ccc2Cl)c1` [Compound 20, 1-((6-chloro-3′methoxy-[1,1′-biphenyl]-3-yl)methyl)pyrrolidine], on 5-HT7R [1], the inhibition at 10 µM turned out to be 70.1% and 7.48 µM corresponded to half-maximal inhibition (IC50). The compound further gave an inhibition at 10 µM against 5-HT7R [2] of 26%.

`Clc1ccccc1-c1cc(CN2CCCC2)ccc1Cl` [Compound 13, 1-((2′,6-dichloro-[1,1′-biphenyl]-3-yl)methyl)pyrrolidine]: the inhibition at 10 µM was found to be 90.7% against 5-HT7R [1] and 50.5% on 5-HT7R [2]. Moreover, the 50% inhibitory concentration (IC50) against 5-HT7R [1] was 3.2 µM.

For the compound `COc1cccc(OC)c1-c1cccc(C2=NCCN2)c1` [Compound 33, 2-(2′,6′-dimethoxy-[1,1′-biphenyl]-3-v1)-4 1 5-dihydro-1H-imidazole], the inhibition at 10 µM at 5-HT7R [1] stood at 32.8%; at 5-HT7R [2] it was 14%.

For `COc1ccc(-c2cccc(C3=NCCN3)c2)cc1` [Compound 32, 2-(4′-methoxy-[1,1′-biphenyl]-3-yl)-4,5-dihydro-1H-imidazole], the inhibition at 10 µM was determined as 40.8% at 5-HT7R [1] and 11.9% at 5-HT7R [2].

`COc1ccccc1-c1cc(CN2CCCC2)ccc1Cl` [Compound 19, 1-((6-chloro-2′-methoxy-[1,1′-biphenyl]-3-yl)methyl)pyrrolidine]: the inhibition at 10 µM turned out to be 51.8% against 5-HT7R [1] and 19.7% at 5-HT7R [2].
